Laboratory results: patent US20150224085A1, “METHOD OF ADMINISTERING A 5,5-FUSED HETEROARYLENE HEPATITIS C VIRUS INHIBITOR FOR TREATING OF PREVENTING HEPATITIS C VIRUS INFECTION” (priority 2012, published 2015)
In brackets after ≈: the same amount, converted by molar mass. Read-outs that look alike come from different tables or passages of the source.

Columns and labels:
[1] = test system: HCV Genotype 1b; assay: Phase I/IIa Group C: HCV RNA reduction, 3-day dosing, Genotype 1b; assay type: in vivo, hepatitis C virus
Description: (§1) The phase I/IIa study was designed to evaluate safety and tolerability, pharmacokinetics (PK), food effect, and antiviral activity with regard to the Compound. The key safety parameters that were evaluated in the trial include adverse events (AEs), physical examination, vital signs, 12-lead electrocardiogram (ECG), and standard safety laboratory tests. The key antiviral activity parameters that were evaluated in the trial include changes in plasma HCV RNA and emergence of resistance mutations. The key pharmacokinetic parameters that were evaluated in the trial include plasma and urine concentrations of the Compound.
(§2) In the phase I/IIa study, plasma HCV RNA was quantitated using a validated commercial assay (COBAS® TAQMAN®) with a lower limit of quantitation of 25 IU/mL. HCV RNA genotyping was performed at Baseline using the Versant HCV Genotype Assay (LiPA) 2.0.
(§3) In Group C, the Compound was evaluated in a randomized, double-blind, placebo-controlled, parallel dosing study in 34 treatment-naive, genotype 1 HCV-infected subjects.
(§4) For all cohorts, dosing was under fasted in this study.

[2] = test system: HCV Genotype 3; assay: Phase I/IIa Group B: plasma HCV RNA reduction after single dose, Genotype 3; assay type: in vivo, hepatitis C virus; settings: 1 subject
Description: as §1, §2
(§5) In Group B, the Compound was evaluated in an open-label, single day study in 18 subjects with chronic HCV Genotype 1, 2, or 3 infection. […] For all cohorts, dosing was under fasted in this study.

[3] = test system: HCV Genotype 2; assay: Phase I/IIa Group D: HCV RNA reduction, 3-day dosing, Genotype 2; assay type: in vivo, hepatitis C virus; settings: for Mean (Range) Maximal HCV RNA Reduction from Baseline: n = 4
Description: as §1, §2
(§6) In Group D, the Compound was evaluated in an randomized, double-blind, placebo-controlled, parallel dosing study in 30 treatment-naive, genotypes 2, 3, and 4 HCV-infected subjects.
as §4

[4] = test system: HCV Genotype 1a; assay: Phase I/IIa Group B: plasma HCV RNA reduction after single dose, Genotype 1a; assay type: in vivo, hepatitis C virus; settings: for Maximum Viral Load Reduction after Single Dose: 1 subject; for Mean maximum viral load reduction after Single Dose: 2 subjects
Description: as §1, §2, §5

[5] = 28-day toxicity study in mice
Description: Safety margins were calculated based upon proposed human doses in the first-in-human trial and human equivalent dose (HED) calculations derived from the two 28-day toxicology studies in mice and monkeys. This approach is consistent with the United States Food and Drug Administration Guidance for Industry entitled “Estimating the Maximum Safe Starting Dose in Initial Clinical Trials for Therapeutics in Adult Healthy Volunteers,” July 2005.

[6] = test system: HCV Genotype 1a; assay: Phase I/IIa Group C: HCV RNA reduction, 3-day dosing, Genotype 1a; assay type: in vivo, hepatitis C virus
Description: as §1, §2, §3, §4

[7] = test system: HCV Genotypes 1, 2, 3, and 4; assay: Phase I/IIa Groups C and D: antiviral activity across genotypes; assay type: in vivo, hepatitis C virus
Description: as §1, §2, §3, §6, §4

[8] = test system: HCV Genotype 2; assay: Phase I/IIa Group B: plasma HCV RNA reduction after single dose, Genotype 2; assay type: in vivo, hepatitis C virus; settings: 1 subject
Description: as §1, §2, §5

[9] = test system: HCV Genotype 4; assay: Phase I/IIa Group D: HCV RNA reduction, 3-day dosing, Genotype 4; assay type: in vivo, hepatitis C virus; settings: n = 4
Description: as §1, §2, §6, §4

[10] = test system: HCV Genotype 3; assay: Phase I/IIa Group D: HCV RNA reduction, 3-day dosing, Genotype 3; assay type: in vivo, hepatitis C virus; settings: n = 4
Description: as §1, §2, §6, §4

[11] = test system: least susceptible HCV genotype; assay: Protein-binding adjusted EC90; assay type: cell-based; settings: Hepatitis C virus, read-out: protein-binding adjusted EC90
[12] = in vivo
Description: as §1
The Compound was first evaluated in a randomized, double-blind, placebo-controlled, sequential dose escalation study in 48 healthy subjects. For each cohort, there were 6 subjects to receive the Compound and 2 subjects to receive placebo. Except cohort 5a, the Compound was administered under fasted conditions.
as §5

[13] = Phase I/IIa Groups C and D: safety and tolerability; assay type: in vivo, human
Description: as §1, §3, §6, §4

[14] = test system: HCV Genotype 1, 2, and 3; assay: Phase I/IIa Group B: antiviral activity of single dose across genotypes; assay type: in vivo, hepatitis C virus; settings: Genotype 1, 2, and 3 HCV-infected subjects
Description: as §1, §2, §5

[15] = test system: genotype 2 replicon with L31M substitution (NS5A M31); assay: HCV replicon model, resistance; assay type: cell-based, hepatitis C virus
[16] = clinical; settings: human, in vivo
Description: as §1, §2, §3, §6, §4

SMILES: COC(=O)N[C@H](C(=O)N1CCC[C@H]1c1nc2cc(-c3csc4c(-c5ccc(-c6cnc([C@@H]7CCCN7C(=O)[C@H](NC(=O)OC)c7ccccc7)[nH]6)cc5)csc34)ccc2[nH]1)C(C)C [the Compound, [(S)-1-((S)-2-{6-[6-(4-{(S)-2-[1-((R)-2-methoxycarbonylamino-2-phenyl-acetyl)-pyrrolidin-2-yl]-3H-imidazol-4-yl}-phenyl)-thieno[3,2-b]thiophen-3-yl]-1H-benzoimidazol-2-yl}-pyrrolidine-1-carbonyl)-2-methyl-propyl]-carbamic acid methyl ester]
- Mean (Range) Maximal HCV RNA Reduction from Baseline ([1]; 25 mg QD x 3 days, n = 3): 3.0 (2.0-4.2) log10 IU/mL
- Mean (Range) Maximal HCV RNA Reduction from Baseline ([1]; 50 mg QD x 3 days, n = 2): 4.3 (4.1-4.5) log10 IU/mL
- Maximum Viral Load Reduction after Single Dose ([2]; 25 mg single dose): 2.2 log10 IU/mL
- Maximum Viral Load Reduction after Single Dose ([2]; 50 mg single dose): 3.7 log10 IU/mL
- Maximum Viral Load Reduction after Single Dose ([2]; 100 mg single dose): 3.3 log10 IU/mL
- Mean (Range) Maximal HCV RNA Reduction from Baseline ([3]; 50 mg BID x 3 days): 2.0 (0.5-4.0) log10 IU/mL
- Mean (Range) Maximal HCV RNA Reduction from Baseline ([3]; 100 mg QD x 3 days): 2.0 (0.3-4.1) log10 IU/mL
- Mean Max Viral Load Response ([3]; subjects with L31 at BL, L31M at Day 4, 2 subjects): −2.83 log10 IU/mL
- Mean Max Viral Load Response ([3]; subjects with L31 at BL, low VL at Day 4 (<1,000 IU/mL), 2 subjects): −4.06 log10 IU/mL
- Mean Max Viral Load Response ([3]; subjects with M31 at BL, 3 subjects): −0.45 log10 IU/mL
- mean maximal viral load reduction ([3]; total daily dose of 100 mg for 3 days): 2.0 log10 IU/mL
- Maximum Viral Load Reduction after Single Dose ([4]; 1 mg single dose): 0.8^2 log10 IU/mL
- Mean maximum viral load reduction after Single Dose ([4]; 5 mg single dose): 2.6^1 log10 IU/mL
- Maximum Viral Load Reduction after Single Dose ([4]; 10 mg single dose): 2.9^2 log10 IU/mL
- Mean maximum viral load reduction after Single Dose ([4]; 25 mg single dose): 3.7^1 log10 IU/mL
- Maximum Viral Load Reduction after Single Dose ([4]; 50 mg single dose): 2.5^2 log10 IU/mL
- Maximum Viral Load Reduction after Single Dose ([4]; 100 mg single dose): 3.3^2 log10 IU/mL
- no observable effect level (NOEL) ([5]; 28-day mouse study): 150 mg/kg/day
- toxicological target ([5]; 28 days, doses up to 250 mg/kg/day): did not define any toxicological target
- NOAEL at 28 days ([5]; both, mouse, in vivo): 250 mg/kg/day
- liver histology ([5]; males and females, 250 mg/kg/day): minimal to mild diffuse hypertrophy of centrilobular hepatocytes
- increase in plasma levels with dose ([5]; mouse, in vivo, 150 mg/kg/day): little or no increase
- Mean ALT values at Day 29 ([5]; mouse, in vivo, 250 mg/kg/day): 88.4 U/L
- Margin of Safety, Mouse ([5]; proposed human dose 1 mg/subject/day (0.02 mg/kg/day)): 610 fold
- Margin of Safety, Mouse ([5]; proposed human dose 5 mg/subject/day (0.08 mg/kg/day)): 153 fold
- Margin of Safety, Mouse ([5]; proposed human dose 10 mg/subject/day (0.17 mg/kg/day)): 72 fold
- Margin of Safety, Mouse ([5]; proposed human dose 25 mg/subject/day (0.42 mg/kg/day)): 29 fold
- Margin of Safety, Mouse ([5]; proposed human dose 50 mg/subject/day (0.83 mg/kg/day)): 15 fold
- Mean (Range) Maximal HCV RNA Reduction from Baseline ([6]; 25 mg QD x 3 days, n = 5): 3.3 (2.9-3.7) log10 IU/mL
- Mean (Range) Maximal HCV RNA Reduction from Baseline ([6]; 50 mg BID x 3 days, n = 6): 3.2 (2.7-3.8) log10 IU/mL
- Mean (Range) Maximal HCV RNA Reduction from Baseline ([6]; 50 mg QD x 3 days, n = 6): 3.6 (3.3-3.9) log10 IU/mL
- Mean (Range) Maximal HCV RNA Reduction from Baseline ([6]; 100 mg QD x 3 days, n = 6): 3.5 (2.6-4.3) log10 IU/mL
- antiviral activity ([7]; Genotype 1, 2, 3, and 4 HCV-infected subjects): potent, pan-genotypic antiviral activity
- rebound (>1.0 log10 IU/mL increase over nadir) ([7]; during the 3 days of dosing): No subject experienced a rebound
- mean maximal HCV RNA reductions ([7]; total dose of 100 mg/day for 3 days, Genotypes 1, 3, and 4): approximately 3.5 log10 IU/mL
- Maximum Viral Load Reduction after Single Dose ([8]; 25 mg single dose): 0.4 log10 IU/mL
- Maximum Viral Load Reduction after Single Dose ([8]; 50 mg single dose): 3.2 log10 IU/mL
- Maximum Viral Load Reduction after Single Dose ([8]; 100 mg single dose): 3.5 log10 IU/mL
- Mean (Range) Maximal HCV RNA Reduction from Baseline ([9]; 50 mg BID x 3 days): 3.9 (3.4-4.5) log10 IU/mL
- Mean (Range) Maximal HCV RNA Reduction from Baseline ([9]; 100 mg QD x 3 days): 3.6 (2.3-4.6) log10 IU/mL
- Mean (Range) Maximal HCV RNA Reduction from Baseline ([10]; 50 mg BID x 3 days): 3.3 (2.5-4.6) log10 IU/mL
- Mean (Range) Maximal HCV RNA Reduction from Baseline ([10]; 100 mg QD x 3 days): 3.4 (3.1-3.8) log10 IU/mL
- EC90 [11]: ~2.3 ng/mL (≈ 2.6 nM)
- dose-limiting toxicity [12]: no subject met protocol-defined criteria for a dose-limiting toxicity
- intensity of adverse events [12]: mild to moderate
- intensity of adverse events ([13]; Groups C and D): mild or moderate
- most common adverse events ([13]; Groups C and D): headache, constipation, and nausea
- discontinuations and serious adverse events ([13]; Groups C and D, 25 to 100 mg/day x 3 days): no safety-related discontinuations or serious adverse events
- safety and tolerability ([13]; daily doses up to 100 mg for 3 days): safe and well tolerated
- antiviral activity [14]: potent pan-genotypic antiviral activity
- resistance conferred by L31M substitution (NS5A M31 polymorphism) [15]: 75 fold
- AUC0-24 ([16]; 25 mg): 235 ± 79.9 ng·h/mL
- Cmax ([16]; 25 mg): 20 ± 6.74 ng/mL
- Tmax ([16]; 25 mg): 3.9 (3.0-6.0) hr
- AUC(0-t) ([16]; 25 mg, AUC0-24): 142 ± 44.5 ng·h/mL
- Cmax ([16]; 25 mg, Cmax): 14 ± 5.19 ng/mL
- Tmax ([16]; 25 mg, Tmax): 3.8 h
- half-life ([16]; 25 mg, t1/2): 20.8 ± 4.06 h
- AUC(0-t) ([16]; 50 mg): 384 ± 204 ng·h/mL
- t1/2 ([16]; 50 mg): 19.7 ± 2.0 h
- AUC(0-t) ([16]; 50 mg, AUC0-12): 260 ± 102 ng·h/mL
- AUC(0-t) ([16]; 50 mg, AUC0-24): 387 ± 115 ng·h/mL
- Cmax ([16]; 50 mg, Cmax): 32 ± 8.12 ng/mL
- Tmax ([16]; 50 mg, Tmax): 3.4 h
- half-life ([16]; 50 mg, t1/2): 23 ± 3.81 h
- t1/2 ([16]; 100 mg): 19.3 ± 2.69 h
- AUC(0-t) ([16]; 100 mg, AUC0-24): 410 ± 122 ng·h/mL
- Cmax ([16]; 100 mg, Cmax): 38 ± 8.6 ng/mL
- Tmax ([16]; 100 mg, Tmax): 3.7 h
- half-life ([16]; 100 mg, t1/2): 22.9 ± 3.6 h
- half-life ([16]; Plasma half-life): ~20 h
- Tmax ([16]; Tmax): 3.3 h
- half-life ([16]; t1/2): 19.7 ± 5.7 h
